Results published in patent publication US20200360426A1, “PROTOCOL AND COMPOSITION FOR SUPPRESSION OF ALLERGIC RESPONSES” (priority 2019, published 2020).

Tested on: apheresis patients (allergic reaction to dextran sulfate)
Description: The protocol begins with the oral administration of an antacid and a histamine blocker. […] The histamine blocker can be selected from a number of commercial alternatives. These include, specifically, H-1 blockers, such as loratadine, fexofenadine and azelastine.
Centrally important and essential is the administration of magnesium, preferably magnesium IV, available as magnesium sulfate. Administration of magnesium sulfate, shortly in advance of apheresis, serves to relax the vascular system, and shift the patient or a sympathetic response to a parasympathetic vascular relaxation response. Magnesium realizes and calms the sympathetic FFF response, the survival instinct that is so prevalent in angioedema. […] While it can be infused over a longer period of more than one hour, a preferred protocol infuses it very rapidly. […] A drip in 100 ml-250 ml normal physiologic saline solution (Ns) or lactated Ringers solution (LR) has been employed. Other carriers, such as dextrose in water (5%) (D5W) or sterile water at smaller volumes, or similar physiologically compatible carriers may be used. A faster drip of not more than 30 minutes is preferable, and may be essential to intervene in and reduce ongoing severe reactions.
When the apheresis is done, dextran sulfate exposure can still cause a reaction. […] Apheresis patients also get oxygen via canula, 2-4 liters a minute through the procedure. […]

For `O=S(=O)([O-])[O-].[Mg+2]` [magnesium sulfate], the “allergic reactions observed during dextran sulfate apheresis” value (full protocol: ACE inhibitors stopped at least a week before, antacid and H-1 histamine blocker, magnesium sulfate IV no more than an hour before apheresis, at least 60 apheresis treatments, at least thirty patients) was “no issues and little or no allergic reactions were observed” and the “tolerance of Liposorber apheresis treatment” value (seven patients with previous anaphylactoid shock reaction to Liposorber even with IV steroids, magnesium sulfate without any supportive or additional treatments) was “allowed all 7 patients to tolerate the treatment”.
